Experiments:
CYPES = assay: Postemergence foliar-applied, direct seeded rice weeds (Example I); type: in vivo, Cyperus esculentus L.
Description: (§1) Seeds or nutlets of the desired test plant species were planted in a soil matrix prepared by mixing a loam or sandy loam soil (e.g., 28.6 percent silt, 18.8 percent clay, and 52.6 percent sand, with a pH of about 5.8 and an organic matter content of about 1.8 percent) and calcareous grit in an 80 to 20 ratio. The soil matrix was contained in plastic pots with a volume of 1 quart and a surface area of 83.6 cm^2. When required to ensure good germination and healthy plants, a fungicide treatment and/or other chemical or physical treatment was applied. The plants were grown for 8-22 days in a greenhouse with an approximate 14 h photoperiod which was maintained at about 29° C. during the day and 26° C. during the night. Nutrients (Peters Excel® 15-5-15 5-Ca 2-Mg and iron chelate) were applied in the irrigation solution as needed and water was added on a regular basis. Supplemental lighting was provided with overhead metal halide 1000-Watt lamps as necessary. The plants were employed for testing when they reached the first through fourth true leaf stage.
(§2) Treatments consisted of the acid or esters of 4-amino-3-chloro-5-fluoro-6-(4-chloro-2-fluoro-3-methoxy-phenyl)pyridine-2-carboxylic acid (Compound A), each formulated as an SC (suspension concentrate), and various herbicidal components alone and in combination. Forms of compound A were applied on an acid equivalent basis.
(§3) Other herbicidal components were applied on an acid equivalent basis and include acetolactate synthase (ALS)-inhibiting herbicides (imidazolinone chemical class) imazethapyr ammonium salt formulated as Newpath®, imazamox ammonium salt formulated as Beyond®, imazapic ammonium salt formulated as Plateau®, imazapyr isopropylamine salt formulated as Arsenal®, imazamethabenz-methyl (technical material) and imazaquin isopropylamine salt formulated as Scepter®/Imagine®.
(§4) Treatment requirements were calculated based upon the rates being tested, the concentration of active ingredient or acid equivalent in the formulation, and a 12 mL application volume at a rate of 187 L/ha.
(§5) For treatments comprised of formulated compounds, measured amounts of compounds were placed individually in 25 mL glass vials and diluted in a volume of 1.25% (v/v) Agri-Dex® crop oil concentrated to obtain 12× stock solutions. […] Application solutions were prepared by adding an appropriate amount of each stock solution (e.g., 1 mL) and diluted to the appropriate final concentrations with the addition of 10 mL of an aqueous mixture of 1.25% (v/v) crop oil concentrate so that the final spray solutions contained 1.25+/−0.05% (v/v) crop oil concentrate.
(§6) For treatments comprised of technical compounds, weighed amounts can be placed individually in 25 mL glass vials and dissolved in a volume of 97:3 v/v acetone/DMSO to obtain 12× stock solutions. […] Application solutions can be prepared by adding an appropriate amount of each stock solution (e.g., 1 mL) and diluted to the appropriate final concentrations with the addition of 10 mL of an aqueous mixture of 1.5% (v/v) crop oil concentrate so that the final spray solutions contain 1.25% (v/v) crop oil concentrate. When technical materials are used, the concentrated stock solutions can be added to the spray solutions so that the final acetone and DMSO concentrations of the application solutions are 16.2% and 0.5%, respectively.
(§7) For treatments comprised of formulated and technical compounds, weighed amounts of the technical materials were placed individually in 25 mL glass vials and dissolved in a volume of 97:3 v/v acetone/DMSO to obtain 12× stock solutions, and measured amounts of the formulated compounds were placed individually in 25 mL glass vials and diluted in a volume of 1.5% (v/v) crop oil concentrate or water to obtain 12× stock solutions. […]

ECHCG [1] = assay: as above; type: in vivo, Echinochloa crusgalli (L.) Beauv.
Description: as §1, §2, §3, §4, §5, §6, §7

ECHCG [2] = assay: In-water applied, transplanted paddy rice weeds (Example II); type: in vivo, Echinochloa crusgalli (L.) Beauv.
Description: Weed seeds or nutlets of the desired test plant species were planted in puddled soil (mud) prepared by mixing a shredded, non-sterilized mineral soil (50.5 percent silt, 25.5 percent clay, and 24 percent sand, with a pH of about 7.6 and an organic matter content of about 2.9 percent) and water at a 1:1 volumetric ratio. The prepared mud was dispensed in 365 mL aliquots into 16-ounce (oz.) non-perforated plastic pots with a surface area of 86.59 square centimeters (cm^2) leaving a headspace of 3 centimeters (cm) in each pot. Mud was allowed to dry overnight prior to planting or transplanting. Rice seeds were planted in Sun Gro MetroMix® 306 planting mixture, which typically has a pH of about 6.0 to about 6.8 and an organic matter content of about 30 percent, in plastic plug trays. Seedlings at the second or third leaf stage of growth were transplanted into 860 mL of mud contained in 32-oz. non-perforated plastic pots with a surface area of 86.59 cm^2 4 days prior to herbicide application. The paddy was created by filling the headspace of the pots with 2.5 to 3 cm of water. When required to ensure good germination and healthy plants, a fungicide treatment and/or other chemical or physical treatment was applied. The plants were grown for 4-22 days in a greenhouse with an approximate 14 h photoperiod which was maintained at about 29° C. during the day and about 26° C. during the night. Nutrients were added as Osmocote® (19:6:12, N:P:K+minor nutrients) at 2 g per 16-oz. pot and 4 g per 32-oz. pot. Water was added on a regular basis to maintain the paddy flood, and supplemental lighting was provided with overhead metal halide 1000-Watt lamps as necessary. The plants were employed for testing when they reached the first through fourth true leaf stage.
Treatments consisted of the acid or esters of 4-amino-3-chloro-5-fluoro-6-(4-chloro-2-fluoro-3-methoxy-phenyl)pyridine-2-carboxylic acid (compound A) each formulated as an SC and various herbicidal components alone and in combination. Forms of compound A were applied on an acid equivalent basis.
as §3, with “included the” for “include”, “(ALS)-inhibiting imidazolinone” for “(ALS)-inhibiting”, “herbicides” for “herbicides (imidazolinone chemical class)”, “material),” for “material)”, “Scepter®.” for “Scepter®/Imagine®.”
Treatment requirements for each compound or herbicidal component were calculated based upon the rates being tested, the concentration of active ingredient or acid equivalent in the formulation, an application volume of 2 mL per component per pot, and an application area of 86.59 cm^2 per pot.
For formulated compounds, a measured amount was placed in an individual 100 or 200 mL glass vial and was dissolved in a volume of 1.25% (v/v) Agri-Dex® crop oil concentrate to obtain application solutions.
For technical grade compounds, a weighed amount was placed in an individual 100 to 200 mL glass vial and was dissolved in a volume of acetone to obtain concentrated stock solutions. […] The concentrated stock solutions obtained were diluted with an equivalent volume of an aqueous mixture containing 2.5% (v/v) crop oil concentrate so that the final application solutions contained 1.25% (v/v) crop oil concentrate.
Applications were made by injecting with a pipetter appropriate amounts of the application solutions, individually and sequentially, into the aqueous layer of the paddy. Control plants were treated in the same manner with the solvent blank. Applications were made so that all treated plant material received the same concentrations of acetone and crop oil concentrate.
The treated plants and control plants were placed in a greenhouse as described above and water was added as needed to maintain a paddy flood. […]

[3] = Imazethapyr ammonium 8.75 gae/ha
[4] = Compound A Benzyl Ester 17.5 gae/ha

SMILES: COCc1cnc(C2=NC(C)(C(C)C)C(=O)N2)c(C(=O)O)c1.N (racemic) [Imazamox ammonium, ammonium (±)-2-[4,5-dihydro-4-methyl-4-(1-methylethyl)-5-oxo-1H-imidazol-2-yl]-5-(methoxymethyl)-3-pyridinecarboxylate]
- Visual Weed Control (%) - 25 DAA CYPES Obs (CYPES; Imazamox ammonium 5.6 gae/ha): 0%
- Visual Weed Control (%) - 25 DAA CYPES Obs (CYPES; Imazamox ammonium 11.2 gae/ha): 0%
- Visual Weed Control (%) - 25 DAA CYPES Obs (CYPES; Imazamox ammonium 22.4 gae/ha): 20%
- Visual Weed Control (%) - 25 DAA ECHCG Obs (ECHCG [1]; Imazamox ammonium 5.6 gae/ha): 15%
- Visual Weed Control (%) - 25 DAA ECHCG Obs (ECHCG [1]; Imazamox ammonium 11.2 gae/ha): 20%
- Visual Weed Control (%) - 25 DAA ECHCG Obs (ECHCG [1]; Imazamox ammonium 22.4 gae/ha): 60%
- Visual Weed Control (%) - 25 DAA ECHCG Obs (ECHCG [2]; Imazamox ammonium 5.6 gae/ha): 0%
- Visual Weed Control (%) - 25 DAA ECHCG Obs (ECHCG [2]; Imazamox ammonium 22.4 gae/ha): 25%

SMILES: Cc1cnc(C2=NC(C)(C(C)C)C(=O)N2)c(C(=O)O)c1.N (racemic) [Imazapic ammonium, ammonium (±)-2-[4,5-dihydro-4-methyl-4-(1-methylethyl)-5-oxo-1H-imidazol-2-yl]-5-methyl-3-pyridinecarboxylic acid]
- Visual Weed Control (%) - 25 DAA ECHCG Obs (ECHCG [1]; Imazapic ammonium 4.38 gae/ha): 20%
- Visual Weed Control (%) - 25 DAA ECHCG Obs (ECHCG [1]; Imazapic ammonium 8.75 gae/ha): 40%
- Visual Weed Control (%) - 25 DAA ECHCG Obs (ECHCG [2]; Imazapic ammonium 8.75 gae/ha): 20%
- Visual Weed Control (%) - 25 DAA ECHCG Obs (ECHCG [2]; Imazapic ammonium 17.5 gae/ha): 20%

SMILES: CCc1cnc(C2=NC(C)(C(C)C)C(=O)N2)c(C(=O)O)c1.N (racemic) [Imazethapyr ammonium, ammonium (±)-2-[4,5-dihydro-4-methyl-4-(1-methylethyl)-5-oxo-1H-imidazol-2-yl]-5-ethyl-3-pyridinecarboxylate]
- Visual Weed Control (%) - 25 DAA CYPES Obs (CYPES; [3]): 0%
- Visual Weed Control (%) - 25 DAA ECHCG Obs (ECHCG [2]; [3]): 0%
- Visual Weed Control (%) - 25 DAA ECHCG Obs (ECHCG [2]; Imazethapyr ammonium 17.5 gae/ha): 0%
- Visual Weed Control (%) - 25 DAA ECHCG Obs (ECHCG [2]; Imazethapyr ammonium 35 gae/ha): 50%

SMILES: COc1c(Cl)ccc(-c2nc(C(=O)O)c(Cl)c(N)c2F)c1F [Compound A Acid, 4-amino-3-chloro-6-(4-chloro-2-fluoro-3-methoxyphenyl)-5-fluoropyridine-2-carboxylic acid]
- Visual Weed Control (%) - 25 DAA CYPES Obs (CYPES; Compound A Acid 4.38 gae/ha): 50%
- Visual Weed Control (%) - 25 DAA ECHCG Obs (ECHCG [1]; Compound A Acid 4.38 gae/ha): 20%
- Visual Weed Control (%) - 25 DAA ECHCG Obs (ECHCG [1]; Compound A Acid 8.75 gae/ha): 50%
- Visual Weed Control (%) - 25 DAA ECHCG Obs (ECHCG [2]; Compound A Acid 8.75 gae/ha): 0%
- Visual Weed Control (%) - 25 DAA ECHCG Obs (ECHCG [2]; Compound A Acid 17.5 gae/ha): 0%
- Visual Weed Control (%) - 25 DAA ECHCG Obs (ECHCG [2]; Compound A Acid 35 gae/ha): 0%

SMILES: COc1c(Cl)ccc(-c2nc(C(=O)OCc3ccccc3)c(Cl)c(N)c2F)c1F [Compound A Benzyl Ester, benzyl ester of 4-amino-3-chloro-5-fluoro-6-(4-chloro-2-fluoro-3-methoxy-phenyl)pyridine-2-carboxylic acid]
- Visual Weed Control (%) - 25 DAA CYPES Obs (CYPES; Compound A Benzyl Ester 4.38 gae/ha): 70%
- Visual Weed Control (%) - 25 DAA CYPES Obs (CYPES; Compound A Benzyl Ester 8.75 gae/ha): 90%
- Visual Weed Control (%) - 25 DAA CYPES Obs (CYPES; [4]): 85%
- Visual Weed Control (%) - 25 DAA ECHCG Obs (ECHCG [2]; [4]): 10%
- Visual Weed Control (%) - 25 DAA ECHCG Obs (ECHCG [2]; Compound A Benzyl Ester 35 gae/ha): 45%

— patent US8906826B2, “Herbicidal compositions comprising 4-amino-3-chloro-5-fluoro-6-(4-chloro-2-fluoro-3-methoxyphenyl) pyridine-2-carboxylic acid or a derivative thereof and imidazolinones” (Dow AgroSciences, LLC, priority 2012, dated 2014)
